Consider one molecule from patent US20250302816A1, “DISRUPTION OF EPITHELIAL BARRIERS FOR MOLECULAR DELIVERY ENHANCEMENT OR EXTRACTION OF EXTRACELLULAR FLUIDS” (The University of Nottingham, priority 2022, published 2025).

The structures appear in SMILES notation.

What all share (format): cell-based, human
One assay concerns Calu-3 cell layer. Put plainly: Delivery of siRNA across Calu-3 cell layer (Transwell). The note with it: 200 μM. The method, then: FIG. 10: Delivery of siRNA (19 bases) across Calu-3 cell layer is enhanced in the presence of 30C12 HSL (200 μM) assessed as recovered fraction from the basolateral chamber of a Transwell.
For another assay, the system named is ZO-1. The assay is described as follows: ZO-1 immunostaining and confocal microscopy of Calu-3 cell layers. The note with it: 200 μM, one hour, vs vehicle 0.15% DMSO. On the procedure:
To visualise the effect of 3OC12-HSL and C7 PQS on tight junction integrity in Calu-3 cell layers, ZO-1, immunostaining and confocal microscopy was performed on cell layers treated by 200 μM 3OC12-HSL and C7 PQS and control (0.15% DMSO in HBSS) for one hour. Confluent cell monolayers were washed with PBS and fixed in 4% paraformaldehyde in PBS for approximately 10 min at room temperature. Cells were then washed 3 times with PBS and permeabilised by incubating with Triton X-100 (0.1% v/v in PBS) for 10 min. Cells were then washed with PBS, followed by the application of 1% BSA/PBS for approximately 1 hour. Thereafter, BSA/PBS solution was aspirated and replaced with mouse, anti-human ZO-1 (primary) antibody, diluted in 1% BSA/PBS to a final concentration of 100 μg/ml. Cell samples were incubated with the primary antibody for 2 hours. The primary antibody solution was then removed and cells washed with PBS (5 times). FITC-labelled goat, anti-mouse (secondary) antibody, diluted according to manufacturer's instructions in 1% BSA/PBS was then applied to the cells for 1 hour. The secondary antibody solution was then aspirated and cells washed with PBS three times. […]

Another assay has as its system Calu-3 cell layers. The note with it: 3OC12-HSL 200 μM. On the procedure:
FIG. 2: Macromolecular therapeutics transported across Calu-3 cell layers in the absence (dashed line) and presence (line) of 3OC12-HSL transported into the basolateral chamber over a period of five hours. Permeability experiments were initiated by applying 0.5 ml of the solutions (250 μg/ml Aflibercept/Bevacizumab/or Doxorubicin diluted in HBSS/HEPES) to the apical side of the cells (donor compartment of the Transwell) with or without 3OC12-HSL (200 μM). Drug permeability was determined by sampling the basolateral solution at regular time intervals. Data points are expressed as means±SEM, derived from three replicates in triplicate. p values of <0.05 were considered statistically significant. *, ** and *** denote p<0.05, p<0.01 and p<0.001, respectively.
Calu-3 cells obtained from American Type Culture Collection, USA were cultured using Dulbecco's Modified Eagle Medium (DMEM) supplemented with penicillin (100 U/mL), streptomycin (0.1 mg/mL), amphotericin (0.25 μg/mL), non-essential amino acids (NEM, 1%) and Fetal Bovine Serum (FBS, 10% v/v, Sigma-Aldrich, UK). The human-derived RPE cell line ARPE-19 was obtained from American Type Culture Collection. […]
Three polarised epithelial in-vitro tissue models, including lung epithelium (Calu-3), retinal pigment epithelium (ARPE-19) and intestinal epithelial (Caco-2) were used to study the efficiency of 200 μM 3OC12-HSL as a paracellular permeability enhancer for three different drugs: bevacizumab, aflibercept and doxorubicin (applied concentrations 250 μg/mL). The amount of drugs transported was determined via the conversion of fluorescence intensity to amount (μg or ng), using calibration curves constructed via serial standard dilutions. […]
Permeability experiments were initiated by applying 0.5 mL of the test solutions to the apical side of the cells (donor compartment of the Transwell®). […] Drug permeability was determined by sampling the basolateral solution at regular time intervals. […]

The next assay deals with MMP. Put plainly: Fluorogenic MMP activity assay. The method, then: FIG. 5: High-throughput MMP assay (MMP Activity Assay Kit (Fluorometric-Red), Abcam #ab112147) showing the normalised accumulation slope of FRET-based signal (Ex540: Em590 nm) read at 5 minute intervals for one hour in adherent Calu-3 cells cultured in glass-bottomed 96-well plates using a SpectraMax i3x/Biomek FXPP high-throughput platform. Each experiment was conducted in triplicate (error bars). Signal accumulation over time in each well was linearly fitted and the gradient of each fit was scaled against the gradient of the relevant positive control wells, to which active MMP was added directly (mixed isoforms, […]), to obtain the normalised accumulation slope.
To investigate the involvement of MMP in the disruption of tight junctions observed in the presence of 200 μM 3OC12-HSL and C7 PQS, a fluorogenic MMP activity assay was performed, using the Amplite™ Universal Fluorimetric MMP Activity Assay Kit. This kit is designed to check the general activity of a MMP enzyme.
Following treatment with 3OC12-HSL and C7 PQS respectively, the conditioned media were collected every hour from apical chamber and MMP activity was determined by using Amplite™ Universal Fluorimetric MMP Activity Assay Kit Green Fluorescence according to the manufacturer's instructions.
A fluorogenic MMP activity assay was carried out in the same manner on further agents.

With `CCCCCCCCCC(=O)CC(=O)N[C@H]1CCOC1=O` [Agent 3OC12-HSL, N-(3-oxododecanoyl) homoserine lactone], the “delivery of siRNA (19 bases) across cell layer, recovered fraction from basolateral chamber” value with Calu-3 cell layer is recorded as “enhanced”. In addition, the “ZO-1 distribution at tight junctions” value in the assay on ZO-1 is “considerable dislocation of ZO-1 proteins”. In addition, the “enhancement of aflibercept transport by 3OC12-HSL” value in the assay on Calu-3 cell layers (aflibercept 250 μg/ml) was 18 fold. For the same molecule, the “enhancement of bevacizumab transport by 3OC12-HSL” value in the assay with Calu-3 cell layers (bevacizumab 250 μg/ml) was determined as 10 fold. Besides, the “enhancement of doxorubicin transport by 3OC12-HSL” value with Calu-3 cell layers (doxorubicin 250 μg/ml, after 5 hours) stood at 17 fold. Further, in the assay on MMP (200 μM, p<0.01, no fluorescence in control samples), the “MMP activation in apical samples taken at one-hour intervals” value is given as “significant MMP activation”. The “period over which MMP activation increased before starting to reduce” value in the assay with MMP (samples taken hourly from apical chamber) was 4 h.
